Laboratory results reported in patent publication US20260317324A1, “BIFUNCTIONAL COMPOUNDS FOR DEGRADING BRAF VIA UBIQUITIN PROTEOSOME PATHWAY” (Nurix Therapeutics, Inc., priority 2023, published 2026).

How the values were obtained:
Format in all cases: cell-based
[1] = biological target: T1, BRAF V600E (Homo sapiens, UniProt P15056, V600E); test: BRAF HiBiT degradation assay, C-terminal HiBiT-tagged BRAF V600E A375 cells (clone 1F10), Nano-Glo HiBiT Lytic assay; conditions: for Dmax: A-375
T1 construct: endogenous C-terminal HiBiT fusion tag on BRAF V600E allele; endogenous in cells; host or cells: A375 clone 1F10 (CRISPR-Cas9 knock-in of the HiBiT tag; parental A375 from ATCC)
T1 sequence (P15056 whole entry V600E, the tested form may be a part): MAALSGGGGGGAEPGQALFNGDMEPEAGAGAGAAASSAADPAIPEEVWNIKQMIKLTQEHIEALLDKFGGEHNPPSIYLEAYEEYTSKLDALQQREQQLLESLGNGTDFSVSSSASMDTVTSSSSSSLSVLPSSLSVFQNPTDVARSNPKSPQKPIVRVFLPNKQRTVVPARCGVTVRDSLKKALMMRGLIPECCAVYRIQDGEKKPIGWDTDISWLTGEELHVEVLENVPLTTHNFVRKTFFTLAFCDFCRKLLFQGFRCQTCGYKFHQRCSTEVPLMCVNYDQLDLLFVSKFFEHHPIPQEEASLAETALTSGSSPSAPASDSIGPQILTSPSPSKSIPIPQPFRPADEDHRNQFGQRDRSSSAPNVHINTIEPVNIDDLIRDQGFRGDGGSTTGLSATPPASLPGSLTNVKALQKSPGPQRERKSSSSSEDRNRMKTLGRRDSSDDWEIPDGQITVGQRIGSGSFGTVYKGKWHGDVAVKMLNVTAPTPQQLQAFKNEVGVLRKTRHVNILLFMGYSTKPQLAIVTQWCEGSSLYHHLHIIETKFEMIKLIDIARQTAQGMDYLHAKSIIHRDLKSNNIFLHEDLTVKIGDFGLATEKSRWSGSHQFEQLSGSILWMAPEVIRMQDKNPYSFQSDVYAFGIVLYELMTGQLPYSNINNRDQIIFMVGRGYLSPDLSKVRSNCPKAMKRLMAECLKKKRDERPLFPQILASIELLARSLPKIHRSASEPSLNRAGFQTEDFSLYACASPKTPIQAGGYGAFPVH
Method in brief: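 Endogenous BRAF V600E-HiBiT A375 (1F10), 10,000 cells/well, 24 h preculture; cpd 11-pt, 1 μM–0.01 nM half-log, n=2, 0.2% DMSO; HiBiT lytic detection 10 min RT; DC50 = fitted conc at Y=50; Obs. Dmax vs DMSO.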

[2] = biological target: T2, BRAF G466V (Homo sapiens, UniProt P15056, G466V); test: BRAF HiBiT degradation assay, C-terminal HiBiT-tagged BRAF G466V overexpressed in HCT-116 BRAF−/− cells (clone 8), Nano-Glo HiBiT Lytic assay
T2 construct: Horizon Discovery (HCT-116 BRAF−/− cells); host or cells: HCT-116 BRAF−/− cells, clone 8, lentiviral transduction
T2 sequence (P15056 whole entry G466V): as the sequence (P15056 whole entry V600E, the tested form may be a part) above, with G466V, E600V counted along it
Method in brief: (§1)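 Luminescence from the lytic HiBiT reagent, read after 10 min at room temperature, measured tagged BRAF remaining in lentivirally transduced HCT-116 BRAF−/− cells. Compounds were tested from 1 μM to 0.01 nM in half-log steps at 0.2% DMSO. DC50 values were fitted at 50% remaining.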

[3] = biological target: T3, BRAF G469A (Homo sapiens, UniProt P15056, G469A); test: BRAF HiBiT degradation assay, C-terminal HiBiT-tagged BRAF G469A overexpressed in HCT-116 BRAF−/− cells (clone 34), Nano-Glo HiBiT Lytic assay
T3 construct: Horizon Discovery (HCT-116 BRAF−/− cells); host or cells: HCT-116 BRAF−/− cells, clone 34, lentiviral transduction
T3 sequence (P15056 whole entry G469A): as the sequence (P15056 whole entry V600E, the tested form may be a part) above, with G469A, E600V counted along it
Method in brief: as §1

[4] = biological target: T4, BRAF D594G (Homo sapiens, UniProt P15056, D594G); test: BRAF HiBiT degradation assay, C-terminal HiBiT-tagged BRAF D594G overexpressed in HCT-116 BRAF−/− cells (clone 63), Nano-Glo HiBiT Lytic assay
T4 construct: Horizon Discovery (HCT-116 BRAF−/− cells); host or cells: HCT-116 BRAF−/− cells, clone 63, lentiviral transduction
T4 sequence (P15056 whole entry D594G): as the sequence (P15056 whole entry V600E, the tested form may be a part) above, with D594G, E600V counted along it
Method in brief: as §1

[5] = A375 (BRAF V600E, Class 1), DC50 at 50% degradation
[6] = A375 (BRAF V600E, Class 1), observed Dmax, % protein degraded relative to DMSO control
[7] = BRAF G466V (Class 3), HCT-116 BRAF−/− cells, DC50 at 50% degradation
[8] = BRAF G466V (Class 3), HCT-116 BRAF−/− cells, observed Dmax relative to DMSO control
[9] = BRAF G469A (Class 2), HCT-116 BRAF−/− cells, DC50 at 50% degradation
[10] = BRAF G469A (Class 2), HCT-116 BRAF−/− cells, observed Dmax relative to DMSO control
[11] = BRAF D594G (Class 3), HCT-116 BRAF−/− cells, DC50 at 50% degradation
[12] = BRAF D594G (Class 3), HCT-116 BRAF−/− cells, observed Dmax relative to DMSO control
[13] = A375 (BRAF V600E), DC50 at 50%: fitted conc. at Y=50
[14] = A375 (BRAF V600E), percentage protein degraded at maximal compound effect relative to DMSO
[15] = BRAF G466V, DC50 at 50%: fitted conc. at Y=50
[16] = HCT-116, BRAF G466V, percentage protein degraded at maximal compound effect relative to DMSO
[17] = Class 2, BRAF G469A, DC50 at 50%: fitted conc. at Y=50
[18] = HCT-116, Class 2, BRAF G469A, percentage protein degraded at maximal compound effect relative to DMSO
[19] = BRAF D594G, DC50 at 50%: fitted conc. at Y=50
[20] = HCT-116, BRAF D594G, percentage protein degraded at maximal compound effect relative to DMSO

Compound CCCS(=O)(=O)Nc1cccc(-c2nc(C3CCC4(CC3)CCN(C(=O)C3CCN(c5ccc(C6CCC(=O)NC6=O)cn5)CC3)CC4)sc2-c2ccnc(N)n2)c1F (racemic) [Compound 246, Rac-N-{3-[5-(2-aminopyrimidin-4-yl)-2-[3-(1-{5-[(3R)-2,6-dioxopiperidin-3-yl]pyridin-2-yl}piperidine-4-carbonyl)-3-azaspiro[5.5]undecan-9-yl]-1,3-thiazol-4-yl]-2-fluorophenyl}propane-1-sulfonamide] has a DC50 [1, 5] of 10 to 50 nM, a Dmax [1, 6] of over 70% and a DC50 [2, 7] of over 500 nM. It also gave a Dmax [2, 8] of under 30%, a DC50 [3, 9] of over 500 nM and a Dmax [3, 10] of under 30%. It also gave a DC50 [4, 11] of over 500 nM and a Dmax [4, 12] of 30 to 70%.

CCN(C)S(=O)(=O)Nc1cccc(-c2nc(C3CCN(C(=O)C4CCN(C(=O)C5CCN(c6ccc(C7CCC(=O)NC7=O)cn6)CC5)CC4)CC3)sc2-c2ccnc(NC(C)C)n2)c1F (racemic) [Compound 183, Rac-(3S)-3-{6-[4-(4-{4-[4-(3-{[ethyl(methyl)sulfamoyl]amino}-2-fluorophenyl)-5-{2-[(propan-2-yl)amino]pyrimidin-4-yl}-1,3-thiazol-2-yl]piperidine-1-carbonyl}piperidine-1-carbonyl)piperidin-1-yl]pyridin-3-yl}piperidine-2,6-dione] showed a DC50 [1, 13] of under 10 nM, a Dmax [1, 14] of over 70% and a DC50 [2, 15] of under 10 nM. For the same compound, the Dmax [2, 16] was 30 to 70%, the DC50 [3, 17] was over 500 nM and the Dmax [3, 18] was 30 to 70%. It also gave a DC50 [4, 19] of under 10 nM and a Dmax [4, 20] of 30 to 70%.

For O=C1CCN(c2ccc(N3CCC(CN4CCN(c5ccc(-n6cc(-c7cc(Cl)cc(NS(=O)(=O)N8CCCC8)c7F)c(-c7ccncc7)n6)nc5)CC4)CC3)cc2)C(=O)N1 [Compound 287, N-[5-chloro-3-(1-{5-[4-({1-[4-(2,4-dioxo-1,3-diazinan-1-yl)phenyl]piperidin-4-yl}methyl)piperazin-1-yl]pyridin-2-yl}-3-(pyridin-4-yl)-1H-pyrazol-4-yl)-2-fluorophenyl]pyrrolidine-1-sulfonamide], the DC50 [1, 5] was under 10 nM, the Dmax [1, 6] was over 70% and the DC50 [2, 7] was under 10 nM. It also gave a Dmax [2, 8] of 30 to 70%, a DC50 [3, 9] of 10 to 50 nM and a Dmax [3, 10] of 30 to 70%. The DC50 [4, 11] was under 10 nM and the Dmax [4, 12] was 30 to 70%.

CCCS(=O)(=O)Nc1cccc(-c2nc(C(C)(C)C)sc2-c2ccnc(Nc3cccc(C4CCN(CC[C@@H]5CCN(c6ccc(C7CCC(=O)NC7=O)cn6)C5)CC4)c3)n2)c1F (mixture of isomers) [Compound 75, N-{3-[2-tert-butyl-5-(2-{[3-(1-{2-[(3R)-1-{5-[(3RS)-2,6-dioxopiperidin-3-yl]pyridin-2-yl}pyrrolidin-3-yl]ethyl}piperidin-4-yl)phenyl]amino}pyrimidin-4-yl)-1,3-thiazol-4-yl]-2-fluorophenyl}propane-1-sulfonamide] showed a DC50 [1, 13] of 10 to 50 nM, a Dmax [1, 14] of over 70% and a DC50 [2, 15] of over 500 nM. The Dmax [2, 16] was under 30%, the DC50 [3, 17] was over 500 nM and the Dmax [3, 18] was under 30%. It also gave a DC50 [4, 19] of over 500 nM and a Dmax [4, 20] of under 30%.

For O=C1CCC(c2ccc(N3CCC(CN4CCN(c5ccc(-n6cc(-c7cc(Cl)cc(NS(=O)(=O)C8CCCC8)c7F)c(-c7ccncc7)n6)cc5)CC4)CC3)nc2)C(=O)N1 (racemic) [Compound 373, Rac-N-{5-chloro-3-[1-(4-{4-[(1-{5-[(3R)-2,6-dioxopiperidin-3-yl]pyridin-2-yl}piperidin-4-yl)methyl]piperazin-1-yl}phenyl)-3-(pyridin-4-yl)-1H-pyrazol-4-yl]-2-fluorophenyl}cyclopentanesulfonamide], the DC50 [1, 5] was under 10 nM, the Dmax [1, 6] was over 70% and the DC50 [2, 7] was under 10 nM. It also gave a Dmax [2, 8] of over 70%, a DC50 [3, 9] of 10 to 50 nM and a Dmax [3, 10] of over 70%. The DC50 [4, 11] was under 10 nM and the Dmax [4, 12] was over 70%.

O=C1CC[C@H](c2ccc(N3CCC(CN4CCN(c5cc(F)c(-n6cc(-c7cc(Cl)cc(NS(=O)(=O)N8CCCC8)c7F)c(-c7ccncc7)n6)cc5F)CC4)CC3)cc2)C(=O)N1 [Compound 353, N-{5-chloro-3-[1-(4-{4-[(1-{4-[(3R)-2,6-dioxopiperidin-3-yl]phenyl}piperidin-4-yl)methyl]piperazin-1-yl}-2,5-difluorophenyl)-3-(pyridin-4-yl)-1H-pyrazol-4-yl]-2-fluorophenyl}pyrrolidine-1-sulfonamide] gave a DC50 [1, 5] of under 10 nM, a Dmax [1, 6] of over 70% and a DC50 [2, 7] of under 10 nM. It also gave a Dmax [2, 8] of over 70%, a DC50 [3, 9] of under 10 nM and a Dmax [3, 10] of over 70%. It also gave a DC50 [4, 11] of under 10 nM and a Dmax [4, 12] of over 70%.

With O=C1CCN(c2ccc(N3CCC(CN4CCN(c5ccc(-n6cc(-c7cc(Cl)cc(NS(=O)(=O)C8CCCC8)c7F)c(-c7ccncc7)n6)cc5)CC4)CC3)nc2)C(=O)N1 [Compound 388, N-[5-chloro-3-(1-{4-[4-({1-[5-(2,4-dioxo-1,3-diazinan-1-yl)pyridin-2-yl]piperidin-4-yl}methyl)piperazin-1-yl]phenyl}-3-(pyridin-4-yl)-1H-pyrazol-4-yl)-2-fluorophenyl]cyclopentanesulfonamide] the DC50 [1, 5] was under 10 nM, the Dmax [1, 6] was over 70% and the DC50 [2, 7] was under 10 nM. It also gave a Dmax [2, 8] of over 70%, a DC50 [3, 9] of 10 to 50 nM and a Dmax [3, 10] of 30 to 70%. The DC50 [4, 11] was under 10 nM and the Dmax [4, 12] was 30 to 70%.

CCN(C)S(=O)(=O)Nc1cccc(-c2nc(C)sc2-c2ccnc(Nc3ccc(N4CCN(C(=O)C5CCN(c6ccc(C7CCC(=O)NC7=O)cn6)CC5)CC4)cn3)n2)c1F (racemic) [Compound 40, Rac-(3S)-3-[6-(4-{4-[6-({4-[4-(3-{[ethyl(methyl)sulfamoyl]amino}-2-fluorophenyl)-2-methyl-1,3-thiazol-5-yl]pyrimidin-2-yl}amino)pyridin-3-yl]piperazine-1-carbonyl}piperidin-1-yl)pyridin-3-yl]piperidine-2,6-dione] gave a DC50 [1, 13] of under 10 nM, a Dmax [1, 14] of over 70% and a DC50 [2, 15] of over 500 nM. The Dmax [2, 16] was 30 to 70%, the DC50 [3, 17] was 10 to 50 nM and the Dmax [3, 18] was 30 to 70%. It also gave a DC50 [4, 19] of over 500 nM and a Dmax [4, 20] of 30 to 70%.

CCCS(=O)(=O)Nc1cccc(-c2nc(C(C)(C)C)sc2-c2ccnc(Nc3cccc(OC4CCN(CC[C@H]5CCN(c6ccc(C7CCC(=O)NC7=O)cn6)C5)CC4)c3)n2)c1F (mixture of isomers) [Compound 69, N-(3-{2-tert-butyl-5-[2-({3-[(1-{2-[(3S)-1-{5-[(3RS)-2,6-dioxopiperidin-3-yl]pyridin-2-yl}pyrrolidin-3-yl]ethyl}piperidin-4-yl)oxy]phenyl}amino)pyrimidin-4-yl]-1,3-thiazol-4-yl}-2-fluorophenyl)propane-1-sulfonamide] showed a DC50 [1, 13] of 10 to 50 nM, a Dmax [1, 14] of over 70% and a DC50 [2, 15] of over 500 nM. For the same compound, the Dmax [2, 16] was 30 to 70%, the DC50 [3, 17] was over 500 nM and the Dmax [3, 18] was under 30%. For the same compound, the DC50 [4, 19] was over 500 nM and the Dmax [4, 20] was 30 to 70%.

Work on CCCS(=O)(=O)Nc1cccc(-c2nc(C3CCC4(CC3)CN(C(=O)C3CCN(c5ccc6c(c5)C(=O)N(C5CCC(=O)NC5=O)C6=O)CC3)C4)sc2-c2ccnc(N)n2)c1F (racemic) [Compound 244, Rac-N-{3-[5-(2-aminopyrimidin-4-yl)-2-[2-(1-{2-[(3R)-2,6-dioxopiperidin-3-yl]-1,3-dioxo-2,3-dihydro-1H-isoindol-5-yl}piperidine-4-carbonyl)-2-azaspiro[3.5]nonan-7-yl]-1,3-thiazol-4-yl]-2-fluorophenyl}propane-1-sulfonamide] yielded a DC50 [1, 13] of under 10 nM, a Dmax [1, 14] of over 70% and a DC50 [2, 15] of 10 to 50 nM. For the same compound, the Dmax [2, 16] was 30 to 70%, the DC50 [3, 17] was over 500 nM and the Dmax [3, 18] was under 30%. It also gave a DC50 [4, 19] of under 10 nM and a Dmax [4, 20] of 30 to 70%.
